Experimental data from patent US8841125B2, “Cancer tissue-derived cell mass and a process for preparing same” (Renaissance Energy Investment Co., Ltd., priority 2009, dated 2014).

System: cell mass derived from the cancer tissue (surgical specimens of human colon cancer, Example 2)
Test: Drug sensitivity test with cell masses embedded in collagen gel
Type: cell-based
Details: 5-FU at 0.01, 0.1, 1, 10 and 100 μg/ml; day 8 vs day 0 of culture; FIG. 4
Protocol: Using 5-FU which is known to inhibit DNA synthesis by binding to a thymidylic acid synthetase involved in the metabolism process necessary for DNA synthesis, a drug sensitivity test on a sample of Example 2 was carried out. The test was carried out by embedding the cell masses (×10 each) derived from the cancer tissue in a collagen gel (CellMatrix type IA (Nitta Gelatin Inc.):5×DMEM (Gibco; 12100-038):buffer solution for gel reconstruction (50 mM NaOH, 260 mM NaHCO3, 200 mM HEPES)=7:2:1), and culturing in 1 cc of STEMPRO serum-free medium (Gibco) for human ES cells in an incubator under the culture conditions of 37° C. and 5% CO2. In addition, 5-FU was applied at a concentration of 0.01 μg/ml, 0.1 μg/ml, 1 μg/ml, 10 μg/ml, and 100 μg/ml, and the states of the cells on days 0 and 8 after culture were compared for evaluation. An increasing rate of the area of the cell mass derived from the cancer tissue was expressed relative to 1 of an increasing rate of the area of the cell mass in the culture without application of a drug.

SMILES: O=c1[nH]cc(F)c(=O)[nH]1 [5-FU]
- proliferation of the cancer cell (increasing rate of the area of the cell mass relative to 1 for culture without drug): concentration-dependently suppressed
